In ChEMBL document CHEMBL1145498, “A systematic interaction map of validated kinase inhibitors with Ser/Thr kinases” (Proc Natl Acad Sci U S A, 2007):

How the values were obtained:
[1] = biological target: Calcium/calmodulin-dependent protein kinase type II subunit alpha (Homo sapiens) (UniProt Q9UQM7)
[2] = biological target: Calcium/calmodulin-dependent protein kinase type II subunit gamma (Homo sapiens) (UniProt Q13555)
[3] = biological target: T1, Calcium/calmodulin-dependent protein kinase type IV (Homo sapiens) (UniProt Q16566)
T1 sequence (whole entry): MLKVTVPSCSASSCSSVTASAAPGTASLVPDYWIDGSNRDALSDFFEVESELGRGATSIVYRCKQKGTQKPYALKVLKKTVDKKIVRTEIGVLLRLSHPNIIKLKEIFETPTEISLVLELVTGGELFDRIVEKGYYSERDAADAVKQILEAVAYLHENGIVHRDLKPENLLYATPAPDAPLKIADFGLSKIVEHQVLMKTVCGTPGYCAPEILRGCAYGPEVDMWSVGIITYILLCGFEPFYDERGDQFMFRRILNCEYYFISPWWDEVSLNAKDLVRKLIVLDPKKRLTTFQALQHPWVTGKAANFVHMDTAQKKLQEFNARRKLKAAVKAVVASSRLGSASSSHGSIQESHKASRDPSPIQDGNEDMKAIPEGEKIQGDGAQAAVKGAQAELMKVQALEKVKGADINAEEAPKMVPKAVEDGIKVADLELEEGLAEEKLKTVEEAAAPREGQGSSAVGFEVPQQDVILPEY

[4] = biological target: Cyclin-dependent kinase 6 (Homo sapiens) (UniProt Q00534)
Sequence of Cyclin-dependent kinase 6 (Homo sapiens) (Q00534 whole entry): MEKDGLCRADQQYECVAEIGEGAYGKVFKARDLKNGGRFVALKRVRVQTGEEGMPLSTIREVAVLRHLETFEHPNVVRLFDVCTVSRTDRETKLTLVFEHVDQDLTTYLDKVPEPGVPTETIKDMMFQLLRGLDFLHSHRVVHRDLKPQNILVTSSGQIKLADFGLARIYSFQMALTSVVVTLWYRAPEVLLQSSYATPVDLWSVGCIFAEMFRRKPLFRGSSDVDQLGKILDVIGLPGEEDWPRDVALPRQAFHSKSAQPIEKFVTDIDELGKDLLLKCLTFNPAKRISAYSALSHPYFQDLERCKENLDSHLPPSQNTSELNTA

[5] = biological target: Dual specificity protein kinase CLK1 (Homo sapiens) (UniProt P49759)
Sequence of Dual specificity protein kinase CLK1 (Homo sapiens) (P49759 whole entry, looked up): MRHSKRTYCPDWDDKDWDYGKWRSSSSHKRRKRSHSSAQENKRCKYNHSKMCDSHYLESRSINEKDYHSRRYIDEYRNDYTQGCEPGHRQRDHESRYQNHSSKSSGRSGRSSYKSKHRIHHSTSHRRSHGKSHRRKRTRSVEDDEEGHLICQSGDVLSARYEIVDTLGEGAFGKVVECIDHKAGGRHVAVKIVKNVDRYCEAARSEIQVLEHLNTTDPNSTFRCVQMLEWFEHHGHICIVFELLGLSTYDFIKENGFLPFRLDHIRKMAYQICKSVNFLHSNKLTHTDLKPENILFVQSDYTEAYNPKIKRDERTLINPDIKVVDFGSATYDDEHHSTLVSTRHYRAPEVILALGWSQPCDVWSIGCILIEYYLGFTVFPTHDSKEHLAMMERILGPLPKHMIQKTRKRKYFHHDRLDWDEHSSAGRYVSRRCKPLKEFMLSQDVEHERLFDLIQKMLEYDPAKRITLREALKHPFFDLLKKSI

[6] = biological target: Tyrosine-protein kinase JAK1 (Homo sapiens) (UniProt P23458)
Sequence of Tyrosine-protein kinase JAK1 (Homo sapiens) (P23458 whole entry): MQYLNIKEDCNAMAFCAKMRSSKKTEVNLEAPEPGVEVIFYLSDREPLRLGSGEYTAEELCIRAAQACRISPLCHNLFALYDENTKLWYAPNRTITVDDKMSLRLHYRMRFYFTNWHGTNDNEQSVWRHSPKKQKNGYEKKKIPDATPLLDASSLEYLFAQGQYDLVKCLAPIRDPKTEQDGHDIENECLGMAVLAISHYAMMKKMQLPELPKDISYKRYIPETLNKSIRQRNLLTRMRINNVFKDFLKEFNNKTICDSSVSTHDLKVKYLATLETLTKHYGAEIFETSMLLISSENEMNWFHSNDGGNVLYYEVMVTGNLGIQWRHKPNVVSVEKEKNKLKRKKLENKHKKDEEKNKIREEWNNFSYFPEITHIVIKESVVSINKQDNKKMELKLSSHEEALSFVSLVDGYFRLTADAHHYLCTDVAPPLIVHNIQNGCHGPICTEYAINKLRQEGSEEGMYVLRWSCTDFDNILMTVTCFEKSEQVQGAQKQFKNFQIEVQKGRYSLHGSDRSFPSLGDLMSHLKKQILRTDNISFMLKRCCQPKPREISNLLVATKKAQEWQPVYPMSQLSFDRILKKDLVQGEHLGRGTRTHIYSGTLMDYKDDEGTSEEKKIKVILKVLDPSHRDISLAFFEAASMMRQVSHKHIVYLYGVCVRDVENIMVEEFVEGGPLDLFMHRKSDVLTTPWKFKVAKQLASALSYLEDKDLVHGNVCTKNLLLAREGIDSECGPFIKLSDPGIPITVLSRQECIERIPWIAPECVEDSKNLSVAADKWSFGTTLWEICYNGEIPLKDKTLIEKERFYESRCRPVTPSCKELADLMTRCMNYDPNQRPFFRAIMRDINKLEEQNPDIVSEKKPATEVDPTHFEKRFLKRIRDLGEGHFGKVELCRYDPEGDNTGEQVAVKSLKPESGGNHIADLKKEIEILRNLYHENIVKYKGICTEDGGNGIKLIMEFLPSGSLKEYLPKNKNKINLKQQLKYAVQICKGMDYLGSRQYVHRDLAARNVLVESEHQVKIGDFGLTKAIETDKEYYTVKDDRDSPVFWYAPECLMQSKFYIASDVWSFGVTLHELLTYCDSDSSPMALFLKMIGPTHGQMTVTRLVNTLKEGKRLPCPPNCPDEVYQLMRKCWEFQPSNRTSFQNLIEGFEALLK

[7] = biological target: Serine/threonine-protein kinase 26 (Homo sapiens) (UniProt Q9P289)
Sequence of Serine/threonine-protein kinase 26 (Homo sapiens) (Q9P289 2-416 limits assumed): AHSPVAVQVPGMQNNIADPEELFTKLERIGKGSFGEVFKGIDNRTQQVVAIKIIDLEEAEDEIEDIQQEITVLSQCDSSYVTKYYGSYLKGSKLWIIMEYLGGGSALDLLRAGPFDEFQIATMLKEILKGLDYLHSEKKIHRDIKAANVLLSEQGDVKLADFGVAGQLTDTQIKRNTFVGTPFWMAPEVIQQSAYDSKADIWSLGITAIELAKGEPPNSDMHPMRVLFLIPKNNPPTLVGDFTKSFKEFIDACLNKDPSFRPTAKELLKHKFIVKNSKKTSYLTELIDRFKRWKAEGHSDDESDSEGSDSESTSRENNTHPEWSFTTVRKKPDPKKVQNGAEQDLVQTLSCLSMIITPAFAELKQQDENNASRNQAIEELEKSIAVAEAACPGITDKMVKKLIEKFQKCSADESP

[8] = biological target: T2, Serine/threonine-protein kinase Nek2 (Homo sapiens) (UniProt P51955)
T2 sequence (whole entry): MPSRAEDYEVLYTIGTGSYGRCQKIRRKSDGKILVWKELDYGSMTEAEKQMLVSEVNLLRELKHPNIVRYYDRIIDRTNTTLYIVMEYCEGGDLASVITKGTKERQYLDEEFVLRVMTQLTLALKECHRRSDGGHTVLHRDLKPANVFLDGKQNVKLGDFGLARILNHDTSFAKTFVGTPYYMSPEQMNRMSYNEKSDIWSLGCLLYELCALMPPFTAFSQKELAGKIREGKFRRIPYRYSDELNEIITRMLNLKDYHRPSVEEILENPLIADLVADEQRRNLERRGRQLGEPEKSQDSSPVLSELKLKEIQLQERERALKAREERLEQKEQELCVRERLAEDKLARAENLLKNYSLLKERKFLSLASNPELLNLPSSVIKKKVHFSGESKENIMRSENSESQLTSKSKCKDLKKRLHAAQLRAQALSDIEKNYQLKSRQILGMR

[9] = biological target: Serine/threonine-protein kinase Nek6 (Homo sapiens) (UniProt Q9HC98)
[10] = biological target: Serine/threonine-protein kinase PAK 6 (Homo sapiens) (UniProt Q9NQU5)
[11] = biological target: T3, 3-phosphoinositide-dependent protein kinase 1 (Homo sapiens) (UniProt O15530)
T3 sequence (whole entry): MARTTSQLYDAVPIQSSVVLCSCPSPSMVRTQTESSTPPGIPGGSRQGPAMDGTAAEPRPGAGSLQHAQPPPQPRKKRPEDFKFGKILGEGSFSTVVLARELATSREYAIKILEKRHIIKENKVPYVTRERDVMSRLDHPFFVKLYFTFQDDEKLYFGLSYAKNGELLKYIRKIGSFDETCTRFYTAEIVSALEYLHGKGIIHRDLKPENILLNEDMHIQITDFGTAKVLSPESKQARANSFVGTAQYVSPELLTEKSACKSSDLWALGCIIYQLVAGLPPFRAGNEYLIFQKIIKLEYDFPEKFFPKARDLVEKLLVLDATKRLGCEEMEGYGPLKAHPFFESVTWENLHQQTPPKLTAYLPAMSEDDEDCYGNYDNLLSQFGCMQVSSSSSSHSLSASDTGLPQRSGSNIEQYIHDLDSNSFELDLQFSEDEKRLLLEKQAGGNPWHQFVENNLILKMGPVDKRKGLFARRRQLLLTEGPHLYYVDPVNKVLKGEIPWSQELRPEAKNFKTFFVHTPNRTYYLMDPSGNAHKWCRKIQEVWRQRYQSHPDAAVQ

[12] = biological target: Serine/threonine-protein kinase pim-3 (Homo sapiens) (UniProt Q86V86)
[13] = biological target: Ribosomal protein S6 kinase alpha-3 (Homo sapiens) (UniProt P51812)
Sequence of Ribosomal protein S6 kinase alpha-3 (Homo sapiens) (P51812 whole entry): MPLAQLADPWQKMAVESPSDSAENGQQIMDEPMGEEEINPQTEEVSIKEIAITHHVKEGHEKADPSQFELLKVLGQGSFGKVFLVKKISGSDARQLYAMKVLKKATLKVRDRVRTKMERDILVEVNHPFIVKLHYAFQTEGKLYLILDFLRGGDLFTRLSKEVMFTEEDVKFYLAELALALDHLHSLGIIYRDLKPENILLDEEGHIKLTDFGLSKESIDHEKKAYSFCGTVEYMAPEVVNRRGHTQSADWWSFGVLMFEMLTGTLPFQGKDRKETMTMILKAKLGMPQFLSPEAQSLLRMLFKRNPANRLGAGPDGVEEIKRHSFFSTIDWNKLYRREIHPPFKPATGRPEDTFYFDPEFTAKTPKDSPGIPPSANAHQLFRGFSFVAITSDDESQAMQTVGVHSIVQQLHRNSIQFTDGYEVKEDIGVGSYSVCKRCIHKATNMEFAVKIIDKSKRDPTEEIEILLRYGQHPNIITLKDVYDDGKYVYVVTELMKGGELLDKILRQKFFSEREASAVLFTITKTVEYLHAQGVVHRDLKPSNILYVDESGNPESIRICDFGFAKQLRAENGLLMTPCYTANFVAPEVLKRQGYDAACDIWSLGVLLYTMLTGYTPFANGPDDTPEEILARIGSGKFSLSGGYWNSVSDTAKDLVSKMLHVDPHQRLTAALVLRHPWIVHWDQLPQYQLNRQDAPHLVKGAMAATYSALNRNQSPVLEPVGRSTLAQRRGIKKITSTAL

[14] = biological target: STE20-like serine/threonine-protein kinase (Homo sapiens) (UniProt Q9H2G2)
[15] = biological target: Serine/threonine-protein kinase 10 (Homo sapiens) (UniProt O94804)
Sequence of Serine/threonine-protein kinase 10 (Homo sapiens) (O94804 whole entry, looked up): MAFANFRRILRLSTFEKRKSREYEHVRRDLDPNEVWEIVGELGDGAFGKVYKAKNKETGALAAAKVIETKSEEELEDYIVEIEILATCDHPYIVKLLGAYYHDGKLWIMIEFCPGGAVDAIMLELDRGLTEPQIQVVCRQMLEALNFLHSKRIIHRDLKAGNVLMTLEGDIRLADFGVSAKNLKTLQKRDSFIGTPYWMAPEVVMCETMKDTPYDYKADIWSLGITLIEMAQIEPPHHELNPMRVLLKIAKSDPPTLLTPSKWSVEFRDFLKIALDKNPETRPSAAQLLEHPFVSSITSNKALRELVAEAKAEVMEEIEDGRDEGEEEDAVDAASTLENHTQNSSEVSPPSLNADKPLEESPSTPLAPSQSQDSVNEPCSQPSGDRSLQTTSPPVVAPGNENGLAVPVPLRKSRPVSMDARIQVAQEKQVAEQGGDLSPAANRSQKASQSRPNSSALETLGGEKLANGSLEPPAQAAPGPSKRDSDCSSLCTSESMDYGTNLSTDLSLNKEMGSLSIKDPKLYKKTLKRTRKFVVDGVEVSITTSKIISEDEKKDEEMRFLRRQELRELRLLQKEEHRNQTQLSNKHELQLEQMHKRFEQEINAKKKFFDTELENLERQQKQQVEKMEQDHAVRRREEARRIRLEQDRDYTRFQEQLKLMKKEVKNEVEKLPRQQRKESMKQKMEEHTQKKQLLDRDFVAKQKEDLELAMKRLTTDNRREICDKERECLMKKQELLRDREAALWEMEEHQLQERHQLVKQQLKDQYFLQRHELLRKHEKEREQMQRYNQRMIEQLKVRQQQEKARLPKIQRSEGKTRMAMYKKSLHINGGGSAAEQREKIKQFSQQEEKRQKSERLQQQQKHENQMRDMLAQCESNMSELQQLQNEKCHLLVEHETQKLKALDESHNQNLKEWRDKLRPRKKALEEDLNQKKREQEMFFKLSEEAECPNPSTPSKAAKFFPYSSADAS

[16] = biological target: Serine/threonine-protein kinase 16 (Homo sapiens) (UniProt O75716)
[17] = biological target: T4, Lymphokine-activated killer T-cell-originated protein kinase (Homo sapiens) (UniProt Q96KB5)
T4 sequence (whole entry): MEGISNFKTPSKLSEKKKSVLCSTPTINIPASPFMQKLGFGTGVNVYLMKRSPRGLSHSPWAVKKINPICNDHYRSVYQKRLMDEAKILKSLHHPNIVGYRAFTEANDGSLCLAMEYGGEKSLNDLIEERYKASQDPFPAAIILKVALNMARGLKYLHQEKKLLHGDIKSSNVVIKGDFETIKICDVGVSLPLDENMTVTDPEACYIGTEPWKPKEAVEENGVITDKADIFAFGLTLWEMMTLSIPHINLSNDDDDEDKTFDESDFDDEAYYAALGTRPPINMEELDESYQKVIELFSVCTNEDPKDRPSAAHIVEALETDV

Sequence of Calcium/calmodulin-dependent protein kinase type II subunit alpha (Homo sapiens) (Q9UQM7 whole entry): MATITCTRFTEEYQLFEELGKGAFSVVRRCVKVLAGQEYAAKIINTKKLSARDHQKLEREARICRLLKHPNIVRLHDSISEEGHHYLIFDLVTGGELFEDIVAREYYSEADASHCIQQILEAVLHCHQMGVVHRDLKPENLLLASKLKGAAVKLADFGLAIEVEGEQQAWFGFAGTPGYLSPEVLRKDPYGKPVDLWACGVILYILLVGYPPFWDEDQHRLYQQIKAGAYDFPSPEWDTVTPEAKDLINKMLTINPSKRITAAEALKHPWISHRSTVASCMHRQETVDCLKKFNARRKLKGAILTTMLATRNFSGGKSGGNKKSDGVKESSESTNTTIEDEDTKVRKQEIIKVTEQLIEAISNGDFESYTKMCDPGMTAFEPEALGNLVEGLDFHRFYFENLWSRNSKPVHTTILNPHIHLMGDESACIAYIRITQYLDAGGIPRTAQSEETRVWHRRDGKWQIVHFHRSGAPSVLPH

Row | ΔTm [1] | ΔTm [2] | ΔTm [3] | ΔTm [4] | ΔTm [6] | ΔTm [7] | ΔTm [8] | ΔTm [9] | ΔTm [10] | ΔTm [11] | ΔTm [12] | ΔTm [14] | ΔTm [15] | ΔTm [16] | SMILES | ΔTm [5] | ΔTm [13] | ΔTm [17]
1 | 1.8 °C | -2 °C | -0.4 °C | 0.1 °C | 1.7 °C | 1.7 °C | 2 °C | -0.4 °C | -0.3 °C | 1.7 °C | 0.1 °C | 3.2 °C | 0 °C | 3.4 °C | O=C(Nc1cccc(Nc2cc(Nc3cccc(C(F)(F)F)c3)ncn2)c1)C1CC1 | 1.9 °C | 2.6 °C | 
2 | 0.8 °C | 0.2 °C | 0.2 °C | 0.3 °C | 2 °C | 0.9 °C | 1.1 °C | 0.6 °C | 0.5 °C | -0.4 °C | 3.5 °C | 1.6 °C | 0.6 °C | 4.4 °C | Oc1cc(O)cc(/C=C/c2ccc(O)c(O)c2)c1 [PICEATANNOL] | 0.9 °C |  | 0 °C
3 | 0.4 °C | 0.7 °C | -3.4 °C | 0.5 °C | 0.2 °C | -0.3 °C | 1.5 °C | 2 °C | -0.1 °C | 0 °C | -0.4 °C | -0.5 °C | 0.6 °C | 1.4 °C | CC(C)c1nn(-c2c(Cl)cccc2Cl)c2nc(Cc3ccc(OCCO)cc3)[nH]c(=O)c12 | 3.6 °C | 3.5 °C | 
4 | -0.1 °C | 0.1 °C | 0.8 °C | 0.4 °C | -0.4 °C | -0.3 °C | 0.8 °C | -1 °C | -0.9 °C | 0.2 °C | 0.2 °C | 0.7 °C | 0.4 °C | 1.7 °C | CCN1/C(=C/C(C)=O)Sc2ccc(OC)cc21 |  | -0.6 °C | 1.1 °C
5 | 3.4 °C | 1.9 °C | -3.4 °C | -0.6 °C | 0.4 °C | 1.3 °C | 0.7 °C | 1.5 °C | -0.2 °C | 1.2 °C | -0.2 °C | 4.2 °C | 2.8 °C | 8.7 °C | CN(c1cccnc1)c1cc2c(Nc3ccc(F)c(Cl)c3)c(C#N)cnc2cn1 | 4.9 °C | 1.7 °C | 
6 | 1.2 °C | 1.4 °C | 0.6 °C | 2.6 °C | 8.5 °C | 3.5 °C | 1.7 °C | 0 °C | 1.6 °C | 0.9 °C | 2.1 °C | 3.1 °C | 5.3 °C | 4.3 °C | O=C1Nc2ccccc2/C1=C\c1ccc[nH]1 | 2.7 °C |  | -0.5 °C
7 | 1.4 °C | 1 °C | 1.8 °C | 4.3 °C | 4.8 °C | 0.4 °C | 2.2 °C | 1.4 °C | -1.1 °C | 1.9 °C | 1.8 °C | 10 °C | 1.5 °C | 2.9 °C | Cc1nc(N)sc1-c1ccnc(Nc2cccc([N+](=O)[O-])c2)n1 | 7 °C | 10.7 °C | 

Row | SMILES | ΔTm [1] | ΔTm [2] | ΔTm [3] | ΔTm [4] | ΔTm [6] | ΔTm [7] | ΔTm [8] | ΔTm [9] | ΔTm [10] | ΔTm [11] | ΔTm [12] | ΔTm [14] | ΔTm [15] | ΔTm [16] | ΔTm [5] | ΔTm [13] | ΔTm [17]
8 | CSc1nc(-c2ccc(F)cc2)c(-c2ccnc(NC(C)c3ccccc3)c2)[nH]1 (racemic) | 0.6 °C | -0.3 °C | -0.3 °C | 0 °C | 0.9 °C | 0.7 °C | 0.9 °C | 0.5 °C | -0.3 °C | -0.9 °C | -0.5 °C | 0.8 °C | 1.9 °C | -0.1 °C | 0 °C | 0.2 °C | 0.4 °C
9 | COc1ccc(Cl)cc1NC(=O)Nc1cc(C)nc2ccccc12 | -0.5 °C | -0.5 °C | 0.6 °C | 0.4 °C | 0.5 °C | 1.1 °C | 0.3 °C | 0 °C | 1.9 °C | 3 °C | 0.8 °C | 1.4 °C | 0.6 °C | 0.4 °C | 0.5 °C | 0.4 °C | 
10 | Cc1ccc(NC2=CC(=O)c3sc(C)nc3C2=O)cc1 | -0.7 °C | -2 °C | 3.7 °C | -1.7 °C | -0.9 °C | -0.5 °C | -1.2 °C | -0.6 °C | -2.1 °C | -3.4 °C | -0.4 °C | -0.6 °C | -0.7 °C | -1.2 °C | -0.8 °C | -0.9 °C | 
11 | CC(C)[C@H](CO)Nc1nc(Nc2cc(N)cc(Cl)c2)c2ncn(C(C)C)c2n1 [AMINOPURVALANOL] | 0.5 °C | 1.3 °C | 4.2 °C |  | 0.1 °C | 4.3 °C | 4.8 °C | 0 °C | 0.1 °C | 1.4 °C | 6.7 °C | 3.5 °C | 2.7 °C | 0.2 °C | 5.5 °C | 3.4 °C | 
12 | CN1CCc2[nH]c(=S)c(C#N)c(-c3cccs3)c2C1 | 0.8 °C | 1 °C | 1.9 °C | 0.1 °C | -0.1 °C | 1 °C | 1 °C | 0 °C | 0 °C | 1.5 °C | 4.2 °C | 5.9 °C | 7.2 °C | 0.5 °C | 2.4 °C | 0.9 °C | 
13 | O=C(Nc1cccc(Nc2nccc(Nc3cccc(C(F)(F)F)c3)n2)c1)C1CC1 [ANILINOPYRIMIDINE1] | 0.3 °C | 0.2 °C | 0.7 °C | 0.8 °C | 2.6 °C | 1.5 °C | 1.3 °C | 1.7 °C | -0.9 °C | 1.6 °C | -0.7 °C | 4.1 °C | 1 °C | 2.3 °C | 1.9 °C | 5.7 °C | 
